According to patent US5698523A, “Acylated enol derivatives as prodrugs of elastase inhibitors” (Merrell Pharmaceuticals Inc., priority 1996, dated 1997):

Biological target: T1, Human neutrophil elastase (Homo sapiens, UniProt P08246)
T1 construct: Enzyme was isolated from human sputum; from tissue; host or cells: human sputum
T1 sequence (P08246 30-267): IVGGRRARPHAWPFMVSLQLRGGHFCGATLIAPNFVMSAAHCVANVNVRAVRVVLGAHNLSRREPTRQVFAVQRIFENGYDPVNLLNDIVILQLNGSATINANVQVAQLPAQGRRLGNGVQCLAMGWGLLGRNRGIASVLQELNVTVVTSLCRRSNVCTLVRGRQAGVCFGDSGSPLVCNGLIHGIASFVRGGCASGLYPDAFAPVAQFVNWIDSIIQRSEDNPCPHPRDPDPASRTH
Assay: In vitro assay of human neutrophil elastase in the presence of prodrug and porcine liver esterase
Assay type: biochemical
Conditions: for time course / onset of inhibition of elastase compared with MDL 103,279: 66 nM compound + porcine liver esterase, FIG. 2
Experimental: Human neutrophil elastase was assayed in vitro using N-MeOSuc-Ala-Ala-Pro-Val-p-nitroanilide, available commercially, as substrate. The assay techniques are similar to those described by Mehdi, et al., Biochemical and Biophysical Research Communications, 166, 595 (1990). The assay mixture consisted of partially purified elastase and substrate (0.2 mM) in 0.1M HEPES (pH 7.5), 0.5M NaCl, 10% DMSO and 0.1% Brij 35. The reaction (3.0 mL, in a plastic cuvette) was maintained at 37° C. and the hydrolysis of the substrate was followed in the presence of 66 nM of MDL 103,279 and 12.5 units of porcine liver esterase (Sigma Chemical Co., cat. no. E-3128). Enzyme was isolated from human sputum, although recently it has become commercially available. The time course of the reaction was followed for 60 min. […] From the final rate, a Ki of 25 nM was calculated for the final inhibitory species, presumed to be MDL 101,146 (as disclosed in European Pat. Appl. OPI No. 0529568, published Mar. 3, 1993). This is consistent with the Ki obtained independently for MDL 101,146. The Ki for MDL 103,279, the prodrug, was estimated from the initial rate to be greater than 2 μM. To rule out interference of the esterase with the elastase assay, or a significant spontaneous (i.e. non-enzymatic) hydrolysis rate of MDL 103,279, the following control experiments, as portrayed in FIG. 1, were performed: (A) elastase+elastase substrate; (B) elastase+elastase substrate+porcine liver esterase; (C) elastase+elastase substrate+MDL 103,279; as well as (D) elastase+elastase substrate+esterase+MDL 103,279.

| half-time of the progressive increase in extent of inhibition of elastase (66 nM compound, 12.5 units porcine liver esterase, 37° C., followed for 60 min) | Ki (66 nM compound, 12.5 units porcine liver esterase, pH 7.5, 37° C., read-out: Ki of the prodrug estimated from the initial rate) [µM] | time course / onset of inhibition of elastase compared with MDL 103,279 | SMILES |
| --- | --- | --- | --- |
| approximately 10 min | > 2 | – | CC(=O)OC(=C(NC(=O)[C@@H]1CCCN1C(=O)[C@@H](NC(=O)c1ccc(C(=O)N2CCOCC2)cc1)C(C)C)C(C)C)C(F)(F)C(F)(F)F [MDL 103,279, (E)-N-[4-(4-Morpholinylcarbonyl)benzoyl]-L-valyl-N-[2-(acetyloxy)-3,3,4,4,4-pentafluoro-1-(1-methylethyl)-1-butenyl]-L-prolinamide] |
| – | – | same time course | CCC(=O)OC(=C(NC(=O)[C@@H]1CCCN1C(=O)[C@@H](NC(=O)c1ccc(C(=O)N2CCOCC2)cc1)C(C)C)C(C)C)C(F)(F)C(F)(F)F [MDL 104,226, (E)-N-[4-(4-Morpholinylcarbonyl)benzoyl]-L-valyl-N-[3,3,4,4,4-pentafluoro-1-(1-methylethyl)-2-(1-oxopropoxy)-1-butenyl]-L-prolinamide] |
| – | – | significantly slower | CC(=O)OC(=C(NC(=O)[C@@H]1CCCN1C(=O)[C@@H](NC(=O)c1ccc(C(=O)N2CCOCC2)cc1)C(C)C)C(C)C)C(F)(F)C(F)(F)F [MDL 105,457, (Z)-N-[4-(4-Morpholinylcarbonyl)benzoyl]-L-valyl-N-[2-(acetyloxy)-3,3,4,4,4-pentafluoro-1-(1-methylethyl)-1-butenyl]-L-prolinamide] |
| – | – | same time course | CC(C)C(=O)OC(=C(NC(=O)[C@@H]1CCCN1C(=O)[C@@H](NC(=O)c1ccc(C(=O)N2CCOCC2)cc1)C(C)C)C(C)C)C(F)(F)C(F)(F)F [MDL 105,658, (E)-N-[4-(4-Morpholinylcarbonyl)benzoyl]-L-valyl-N-[3,3,4,4,4-pentafluoro-1-(1-methylethyl)-2-(2-methyl-1-oxopropoxy)-1-butenyl]-L-prolinamide] |
